Each structure is given as a SMILES string.

One may read the EC50 as the concentration at which the effect is half-maximal.

In the assay the target is T1, STAT6 (Homo sapiens, UniProt P42226).
T1 construct: stably transfected HaCaT keratinocyte cell line, which expresses NanoLuc luciferase reporter gene under the transcriptional control of the STAT6 responsive promoter; endogenous in cells; host or cells: HaCaT keratinocyte reporter cell line (stably transfected with a NanoLuc reporter)
T1 sequence (P42226 1-847): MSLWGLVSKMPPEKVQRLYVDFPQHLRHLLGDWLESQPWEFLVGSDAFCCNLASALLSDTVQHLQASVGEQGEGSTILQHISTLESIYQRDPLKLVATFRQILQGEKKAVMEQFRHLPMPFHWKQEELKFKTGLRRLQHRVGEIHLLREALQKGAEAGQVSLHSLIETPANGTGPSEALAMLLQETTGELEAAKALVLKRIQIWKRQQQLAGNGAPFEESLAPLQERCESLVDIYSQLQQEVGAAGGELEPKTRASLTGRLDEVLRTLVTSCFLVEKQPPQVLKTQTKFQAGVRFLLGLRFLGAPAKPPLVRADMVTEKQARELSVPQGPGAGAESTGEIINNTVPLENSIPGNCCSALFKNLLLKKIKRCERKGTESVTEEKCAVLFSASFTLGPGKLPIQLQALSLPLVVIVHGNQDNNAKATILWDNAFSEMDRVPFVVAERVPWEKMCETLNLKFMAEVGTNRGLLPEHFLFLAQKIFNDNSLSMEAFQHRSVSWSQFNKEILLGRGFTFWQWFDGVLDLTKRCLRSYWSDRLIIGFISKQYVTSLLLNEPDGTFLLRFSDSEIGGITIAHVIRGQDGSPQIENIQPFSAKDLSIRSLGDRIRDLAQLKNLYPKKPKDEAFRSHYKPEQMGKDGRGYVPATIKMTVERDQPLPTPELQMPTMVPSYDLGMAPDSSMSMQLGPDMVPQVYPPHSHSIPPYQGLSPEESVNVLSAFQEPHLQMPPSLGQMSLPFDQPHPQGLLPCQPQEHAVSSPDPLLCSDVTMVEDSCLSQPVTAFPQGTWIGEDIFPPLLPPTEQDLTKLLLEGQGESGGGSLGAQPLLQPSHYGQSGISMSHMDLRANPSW
Nature of the assay: STAT6 Reporter Luciferase Assay (IL-13 stimulated HaCaT keratinocyte NanoLuc reporter cells). The assay is classed as cell-based. To be noted: IL-13 stimulated HaCaT STAT6 NanoLuc reporter cells; read-out: Reporter EC50. Put shortly:
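Compounds were tested as 11-point, 4-fold series in duplicate, applied for 2 h at 37 °C in low-serum (2% FBS) DMEM. The cells were a stable HaCaT line with NanoLuc under a STAT6-responsive IL-13Ra2 promoter. After 4 h with 0.12 nM IL-13, Nano-Glo luminescence was measured.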
Regarding `CC(C)n1nc(C(=O)NCc2ccc(NC(=O)N(C)C)cc2)c2c1CCN(c1ccc(C(=O)N3CCC4(CCC(=O)N4C)CC3)cn1)C2` [Example 564, N-(4-(3,3-dimethylureido)benzyl)-1-isopropyl-5-(5-(1-methyl-2-oxo-1,8-diazaspiro[4.5]decane-8-carbonyl)pyridin-2-yl)-4,5,6,7-tetrahydro-1H-pyrazolo[4,3-c]pyridine-3-carboxamide], the EC50 was 223 nM. As for `COCCN1CCC(CN(C)C(=O)c2ccc(N3Cc4c(C(=O)NCc5ccc(NC(=O)N(C)C)cc5)nn(C(C)C)c4[C@@H](C)C3)cc2)CC1` [Example 565, (S)-N-(4-(3,3-dimethylureido)benzyl)-1-isopropyl-5-(4-(((1-(2-methoxyethyl)piperidin-4-yl)methyl)(methyl)carbamoyl)phenyl)-7-methyl-4,5,6,7-tetrahydro-1H-pyrazolo[4,3-c]pyridine-3-carboxamide], the EC50 stood at 5 nM. Turning to `Cc1nn(C)c(=O)n1-c1ccc(N2Cc3c(C(=O)NCc4ccc(NC(=O)N5CCN(C)CC5)cc4)nn(C(C)C)c3[C@@H](C)C2)nc1` [Example 613, (S)-5-(5-(1,3-dimethyl-5-oxo-1,5-dihydro-4H-1,2,4-triazol-4-yl)pyridin-2-yl)-1-isopropyl-7-methyl-N-(4-(4-methylpiperazine-1-carboxamido)benzyl)-4,5,6,7-tetrahydro-1H-pyrazolo[4,3-c]pyridine-3-carboxamide], the EC50 came to 3 nM. On to `CC(C)n1nc(C(=O)NCc2ccc(NC(=O)N3CCN4CCCC[C@H]4C3)c(F)c2)c2c1[C@@H](C)CN(c1ccc(C(=O)N(C)C)cc1)C2` [Example 640, (S)-N-(4-(((S)-5-(4-(dimethylcarbamoyl)phenyl)-1-isopropyl-7-methyl-4,5,6,7-tetrahydro-1H-pyrazolo[4,3-c]pyridine-3-carboxamido)methyl)-2-fluorophenyl)octahydro-2H-pyrido[1,2-a]lpyrazine-2-carboxamide], for which the EC50 was found to be 1 nM. Regarding `CC(C)n1nc(C(=O)NCc2ccc(NC(=O)N3CC4(CN(C)C4)C3)c(F)c2)c2c1[C@@H](C)CN(c1ccc(C(=O)N(C)C)cc1)C2` [Example 641, (S)-5-(4-(dimethylcarbamoyl)phenyl)-N-(3-fluoro-4-(6-methyl-2,6-diazaspiro[3.3]heptane-2-carboxamido)benzyl)-1-isopropyl-7-methyl-4,5,6,7-tetrahydro-1H-pyrazolo[4,3-c]pyridine-3-carboxamide], the EC50 worked out at 5 nM.

As to `CC(C)n1nc(C(=O)NCc2ccc(NC(=O)N3CCC4(CCN(C)C4)CC3)c(F)c2)c2c1[C@@H](C)CN(c1ccc(C(=O)N(C)C)cc1)C2` [Example 642, (S)-N-(4-((5-(4-(dimethylcarbamoyl)phenyl)-1-isopropyl-7-methyl-4,5,6,7-tetrahydro-1H-pyrazolo[4,3-c]pyridine-3-carboxamido)methyl)-2-fluorophenyl)-2-methyl-2,8-diazaspiro[4.5]decane-8-carboxamide], the EC50 is 1 nM. `CC(C)n1nc(C(=O)NCc2ccc(NC(=O)N3CCC4(CC3)CN(C)CCO4)c(F)c2)c2c1[C@@H](C)CN(c1ccc(C(=O)N(C)C)cc1)C2` [Example 643, (S)-N-(4-((5-(4-(dimethylcarbamoyl)phenyl)-1-isopropyl-7-methyl-4,5,6,7-tetrahydro-1H-pyrazolo[4,3-c]pyridine-3-carboxamido)methyl)-2-fluorophenyl)-4-methyl-1-oxa-4,9-diazaspiro[5.5]undecane-9-carboxamide]: the EC50 was 1 nM. For `CC(C)n1nc(C(=O)NCc2ccc(NC(=O)N3CCC4(CCCN(C)C4)CC3)c(F)c2)c2c1[C@@H](C)CN(c1ccc(C(=O)N(C)C)cc1)C2` [Example 644, (S)-N-(4-((5-(4-(dimethylcarbamoyl)phenyl)-1-isopropyl-7-methyl-4,5,6,7-tetrahydro-1H-pyrazolo[4,3-c]pyridine-3-carboxamido)methyl)-2-fluorophenyl)-2-methyl-2,9-diazaspiro[5.5]undecane-9-carboxamide], the EC50 was 1 nM. On to `CC(C)n1nc(C(=O)NCc2ccc(NC(=O)N3CCC4(CC3)CCN4C)c(F)c2)c2c1[C@@H](C)CN(c1ccc(C(=O)N(C)C)cc1)C2` [Example 645, (S)-5-(4-(dimethylcarbamoyl)phenyl)-N-(3-fluoro-4-(1-methyl-1,7-diazaspiro[3.5]nonane-7-carboxamido)benzyl)-1-isopropyl-7-methyl-4,5,6,7-tetrahydro-1H-pyrazolo[4,3-c]pyridine-3-carboxamide], for which the EC50 is 1 nM. In the case of `CC(C)n1nc(C(=O)NCc2ccc(NC(=O)N3CC4(CCCN(C)C4)C3)c(F)c2)c2c1[C@@H](C)CN(c1ccc(C(=O)N(C)C)cc1)C2` [Example 646, (S)-5-(4-(dimethylcarbamoyl)phenyl)-N-(3-fluoro-4-(6-methyl-2,6-diazaspiro[3.5]nonane-2-carboxamido)benzyl)-1-isopropyl-7-methyl-4,5,6,7-tetrahydro-1H-pyrazolo[4,3-c]pyridine-3-carboxamide], the EC50 turned out to be 1 nM. Consider `CC(C)n1nc(C(=O)NCc2ccc(NC(=O)N3CCC4(CC3)CN(C)C4)c(F)c2)c2c1[C@@H](C)CN(c1ccc(C(=O)N(C)C)cc1)C2` [Example 647, (S)-5-(4-(dimethylcarbamoyl)phenyl)-N-(3-fluoro-4-(2-methyl-2,7-diazaspiro[3.5]nonane-7-carboxamido)benzyl)-1-isopropyl-7-methyl-4,5,6,7-tetrahydro-1H-pyrazolo[4,3-c]pyridine-3-carboxamide], for which the EC50 was found to be 1 nM. Regarding `CC(C)n1nc(C(=O)NCc2ccc(NC(=O)N3CCN(C)C4(CC4)C3)c(F)c2)c2c1[C@@H](C)CN(c1ccc(C(=O)N(C)C)cc1)C2` [Example 648, (S)-5-(4-(dimethylcarbamoyl)phenyl)-N-(3-fluoro-4-(4-methyl-4,7-diazaspiro[2.5]octane-7-carboxamido)benzyl)-1-isopropyl-7-methyl-4,5,6,7-tetrahydro-1H-pyrazolo[4,3-c]pyridine-3-carboxamide], the EC50 turned out to be 1 nM. As to `CC(C)n1nc(C(=O)NCc2ccc(NC(=O)N3CCN(C)CC3)cc2)c2c1[C@@H](C)CN(c1ccc3c(c1)CCCN(C)C3=O)C2` [Example 651, (S)-1-isopropyl-7-methyl-5-(2-methyl-1-oxo-2,3,4,5-tetrahydro-1H-benzo[c]azepin-7-yl)-N-(4-(4-methylpiperazine-1-carboxamido)benzyl)-4,5,6,7-tetrahydro-1H-pyrazolo[4,3-c]pyridine-3-carboxamide], the EC50 was determined as 1 nM.

With `Cc1nn(C)c(=O)n1-c1ccc(N2Cc3c(C(=O)NCc4ccc(NC(=O)N5CCN(C)CC5)cc4)nn(C(C)C)c3[C@@H](C)C2)cc1` [Example 652, (S)-5-(4-(1,3-dimethyl-5-oxo-1,5-dihydro-4H-1,2,4-triazol-4-yl)phenyl)-1-isopropyl-7-methyl-N-(4-(4-methylpiperazine-1-carboxamido)benzyl)-4,5,6,7-tetrahydro-1H-pyrazolo[4,3-c]pyridine-3-carboxamide], the EC50 was found to be 5 nM.

For `CC(C)n1nc(C(=O)NCc2ccc(NC(=O)N3CCN(C)CC3)cc2)c2c1[C@@H](C)CN(c1ccc(-c3nccn3C3CC3)cn1)C2` [Example 653, (S)-5-(5-(1-cyclopropyl-1H-imidazol-2-yl)pyridin-2-yl)-1-isopropyl-7-methyl-N-(4-(4-methylpiperazine-1-carboxamido)benzyl)-4,5,6,7-tetrahydro-1H-pyrazolo[4,3-c]pyridine-3-carboxamide], the half-maximal effective concentration (EC50) turned out to be 3 nM. On to `CC(C)n1nc(C(=O)NCc2ccc(NC(=O)N3CCN(C)CC3)cc2)c2c1[C@@H](C)CN(c1ccc(-c3nccn3C(F)F)cn1)C2` [Example 654, (S)-5-(5-(1-(difluoromethyl)-1H-imidazol-2-yl)pyridin-2-yl)-1-isopropyl-7-methyl-N-(4-(4-methylpiperazine-1-carboxamido)benzyl)-4,5,6,7-tetrahydro-1H-pyrazolo[4,3-c]pyridine-3-carboxamide], for which the EC50 worked out at 2 nM. For the compound `CC(C)n1nc(C(=O)NCc2ccc(NC(=O)N3CCN(C)CC3)cc2)c2c1[C@@H](C)CN(c1ccc(-c3nncn3C3CC3)cn1)C2` [Example 655, (S)-5-(5-(4-cyclopropyl-4H-1,2,4-triazol-3-yl)pyridin-2-yl)-1-isopropyl-7-methyl-N-(4-(4-methylpiperazine-1-carboxamido)benzyl)-4,5,6,7-tetrahydro-1H-pyrazolo[4,3-c]pyridine-3-carboxamide], the EC50 is 2 nM.
